# Test results: patent US20180188224A1, “METHOD FOR CONSTRUCTING A SENSORY SPACE” (CENTRE SCIENTIFIQUE ET TECHNIQUE DU BATIMENT (CSTB), priority 2015, published 2018)
# Experiments:
# [1] = system: four non-smoking volunteers (2 men and 2 women); assay: Taste identification questionnaire, trained panel (count of 6 repetitions per subject in which the stimulus was given each taste label; level of recognition %); assay type: in vivo, human; conditions: for Level of Recognition %: Bitter / Level of Recognition %: Neutral / Level of Recognition %: Salty / Level of Recognition %: Sour / Level of Recognition %: Sweet: four subjects
# Description: (§1) In this test, four non-smoking volunteers (2 men and 2 women) were chosen from 12 people for their performance in taste recognition. Their mean age was 32 years, ranging from 24 to 40 years. […] These four people were trained for several months to recognize and detect the four basic tastes, and also regarding the procedures of sensory and physiological analysis.
# (§2) The four basic tastes (sweet, salty, sour and bitter) were used. The solutions were prepared with citric acid for the sour taste, caffeine for the bitter taste, sodium chloride for the salty taste and sucrose for the sweet taste (all purchased from Sigma Aldrich, France) in Evian water. Evian water was also used as control and blank. Each taste was prepared with the four concentrations mentioned in table 1.
# (§3) The amount of solution to be tested was standardized at 10 ml. In order to impregnate the whole of the oral cavity, the subjects kept the solution in their mouth for 5 s before swallowing it.
# (§4) The sessions were individual and the subjects were asked not to eat or drink anything for at least 1 h before the test. They arrived 15 min before the start of the session in order to acclimatize to the environmental conditions, in particular the temperature of the room (kept constant at 23° C.) and to be resting seated on a comfortable chair. The 16 solutions for testing and two additional samples of water containing solely Evian water, added to the references, were presented monadically following a test order determined from a “balanced incomplete block design”. During a session, 9 samples out of 18 were presented to minimize sensory fatigue. In addition, a sample of Evian was always tested as a “blank” sample in order to avoid the first-order effect (Lawless, H. T. & Heymann, H., 2010, Sensory evaluation of food: Principles and practices. Springer, New York) and was excluded from the analysis. A light signal was sent to give the instruction to test the sample. When the disturbance to the nervous system returned to its baseline level (after approximately 1 min), a second light signal indicated to the subjects that they should complete a questionnaire regarding the stimulus tested previously. The first part of the questionnaire was linked to the identification of the taste (i.e. determining the quality of the taste); the subjects had to choose between five labels: sweet, salty, sour, bitter or neutral. They then had to assign a taste intensity score on an 11-point scale (from 0 “not intense” (i.e. taste of Evian only) to 10 “very intense”) and finally to give a hedonic score on an 11-point scale (from 0 “very unpleasant” to 10 “very pleasant”, 5 being “neutral”).
# (§5) This procedure was repeated for each of the 9 stimuli. A session lasted approximately 45 min including a debriefing at the end of the test to ensure understanding of the sense of the signal variations. The experiment was repeated 12 times per subject, meaning that the data are composed of 6 data sets per subject and per product and 12 data sets for the Evian product per subject. Thus, the database consists of 432 samples.
# [2] = system: four non-smoking volunteers (2 men and 2 women); assay: Hedonic score, 11-point scale (0 very unpleasant to 10 very pleasant, 5 neutral); assay type: in vivo, human; conditions: concentration 4 (highest)
# Description: as §1, §2, §3, §4, §5
# (§6) The effect of the taste on the hedonic and intensity scores was analyzed by an analysis of variance (ANOVA) including the product effect, the subject effect and the product-subject interaction. The subject effect was fixed because there were only 4 subjects and the results could only be applied to a particular schema. The differences were considered to be significant at a level of 0.05.
# [3] = cited from earlier work
# [4] = system: four non-smoking volunteers (2 men and 2 women); assay: Taste intensity score, 11-point scale (0 not intense to 10 very intense); assay type: in vivo, human; conditions: concentration 4; averaged over 4 subjects, 6 repetitions each
# Description: as §1, §2, §3, §4, §5, §6
compound,measurement,setting,value
"OC[C@H]1O[C@@](CO)(O[C@H]2O[C@H](CO)[C@@H](O)[C@H](O)[C@H]2O)[C@@H](O)[C@@H]1O [Sucrose, sucrose]",Individual recognition score: Bitter,"[1]; Subject 1, dilution 1",0
same,Individual recognition score: Neutral,"[1]; Subject 1, dilution 1",0
same,Individual recognition score: Salty,"[1]; Subject 1, dilution 1",0
same,Individual recognition score: Sour,"[1]; Subject 1, dilution 1",0
same,Individual recognition score: Sweet,"[1]; Subject 1, dilution 1",6
same,Individual recognition score: Bitter,"[1]; Subject 1, dilution 2",0
same,Individual recognition score: Neutral,"[1]; Subject 1, dilution 2",0
same,Individual recognition score: Salty,"[1]; Subject 1, dilution 2",0
same,Individual recognition score: Sour,"[1]; Subject 1, dilution 2",0
same,Individual recognition score: Sweet,"[1]; Subject 1, dilution 2",6
same,Individual recognition score: Bitter,"[1]; Subject 1, dilution 3",0
same,Individual recognition score: Neutral,"[1]; Subject 1, dilution 3",0
same,Individual recognition score: Salty,"[1]; Subject 1, dilution 3",0
same,Individual recognition score: Sour,"[1]; Subject 1, dilution 3",0
same,Individual recognition score: Sweet,"[1]; Subject 1, dilution 3",6
same,Individual recognition score: Bitter,"[1]; Subject 1, dilution 4",0
same,Individual recognition score: Neutral,"[1]; Subject 1, dilution 4",0
same,Individual recognition score: Salty,"[1]; Subject 1, dilution 4",0
same,Individual recognition score: Sour,"[1]; Subject 1, dilution 4",0
same,Individual recognition score: Sweet,"[1]; Subject 1, dilution 4",6
same,Individual recognition score: Bitter,"[1]; Subject 2, dilution 1",0
same,Individual recognition score: Neutral,"[1]; Subject 2, dilution 1",0
same,Individual recognition score: Salty,"[1]; Subject 2, dilution 1",0
same,Individual recognition score: Sour,"[1]; Subject 2, dilution 1",0
same,Individual recognition score: Sweet,"[1]; Subject 2, dilution 1",6
same,Individual recognition score: Bitter,"[1]; Subject 2, dilution 2",0
same,Individual recognition score: Neutral,"[1]; Subject 2, dilution 2",0
same,Individual recognition score: Salty,"[1]; Subject 2, dilution 2",0
same,Individual recognition score: Sour,"[1]; Subject 2, dilution 2",0
same,Individual recognition score: Sweet,"[1]; Subject 2, dilution 2",6
same,Individual recognition score: Bitter,"[1]; Subject 2, dilution 3",0
same,Individual recognition score: Neutral,"[1]; Subject 2, dilution 3",0
same,Individual recognition score: Salty,"[1]; Subject 2, dilution 3",0
same,Individual recognition score: Sour,"[1]; Subject 2, dilution 3",0
same,Individual recognition score: Sweet,"[1]; Subject 2, dilution 3",6
same,Individual recognition score: Bitter,"[1]; Subject 2, dilution 4",0
same,Individual recognition score: Neutral,"[1]; Subject 2, dilution 4",0
same,Individual recognition score: Salty,"[1]; Subject 2, dilution 4",0
same,Individual recognition score: Sour,"[1]; Subject 2, dilution 4",0
same,Individual recognition score: Sweet,"[1]; Subject 2, dilution 4",6
same,Individual recognition score: Bitter,"[1]; Subject 3, dilution 1",0
same,Individual recognition score: Neutral,"[1]; Subject 3, dilution 1",3
same,Individual recognition score: Salty,"[1]; Subject 3, dilution 1",0
same,Individual recognition score: Sour,"[1]; Subject 3, dilution 1",0
same,Individual recognition score: Sweet,"[1]; Subject 3, dilution 1",3
same,Individual recognition score: Bitter,"[1]; Subject 3, dilution 2",0
same,Individual recognition score: Neutral,"[1]; Subject 3, dilution 2",0
same,Individual recognition score: Salty,"[1]; Subject 3, dilution 2",0
same,Individual recognition score: Sour,"[1]; Subject 3, dilution 2",0
same,Individual recognition score: Sweet,"[1]; Subject 3, dilution 2",6
same,Individual recognition score: Bitter,"[1]; Subject 3, dilution 3",0
same,Individual recognition score: Neutral,"[1]; Subject 3, dilution 3",0
same,Individual recognition score: Salty,"[1]; Subject 3, dilution 3",0
same,Individual recognition score: Sour,"[1]; Subject 3, dilution 3",0
same,Individual recognition score: Sweet,"[1]; Subject 3, dilution 3",6
same,Individual recognition score: Bitter,"[1]; Subject 3, dilution 4",0
same,Individual recognition score: Neutral,"[1]; Subject 3, dilution 4",0
same,Individual recognition score: Salty,"[1]; Subject 3, dilution 4",0
same,Individual recognition score: Sour,"[1]; Subject 3, dilution 4",0
same,Individual recognition score: Sweet,"[1]; Subject 3, dilution 4",6
same,Individual recognition score: Bitter,"[1]; Subject 4, dilution 1",0
same,Individual recognition score: Neutral,"[1]; Subject 4, dilution 1",0
same,Individual recognition score: Salty,"[1]; Subject 4, dilution 1",0
same,Individual recognition score: Sour,"[1]; Subject 4, dilution 1",0
same,Individual recognition score: Sweet,"[1]; Subject 4, dilution 1",6
same,Individual recognition score: Bitter,"[1]; Subject 4, dilution 2",0
same,Individual recognition score: Neutral,"[1]; Subject 4, dilution 2",0
same,Individual recognition score: Salty,"[1]; Subject 4, dilution 2",0
same,Individual recognition score: Sour,"[1]; Subject 4, dilution 2",0
same,Individual recognition score: Sweet,"[1]; Subject 4, dilution 2",6
same,Individual recognition score: Bitter,"[1]; Subject 4, dilution 3",0
same,Individual recognition score: Neutral,"[1]; Subject 4, dilution 3",0
same,Individual recognition score: Salty,"[1]; Subject 4, dilution 3",0
same,Individual recognition score: Sour,"[1]; Subject 4, dilution 3",0
same,Individual recognition score: Sweet,"[1]; Subject 4, dilution 3",6
same,Individual recognition score: Bitter,"[1]; Subject 4, dilution 4",0
same,Individual recognition score: Neutral,"[1]; Subject 4, dilution 4",0
same,Individual recognition score: Salty,"[1]; Subject 4, dilution 4",0
same,Individual recognition score: Sour,"[1]; Subject 4, dilution 4",0
same,Individual recognition score: Sweet,"[1]; Subject 4, dilution 4",6
same,Level of Recognition %: Bitter,[1]; dilution 1,0%
same,Level of Recognition %: Neutral,[1]; dilution 1,12%
same,Level of Recognition %: Salty,[1]; dilution 1,0%
same,Level of Recognition %: Sour,[1]; dilution 1,0%
same,Level of Recognition %: Sweet,[1]; dilution 1,88%
same,Level of Recognition %: Bitter,[1]; dilution 2,0%
same,Level of Recognition %: Neutral,[1]; dilution 2,0%
same,Level of Recognition %: Salty,[1]; dilution 2,0%
same,Level of Recognition %: Sour,[1]; dilution 2,0%
same,Level of Recognition %: Sweet,[1]; dilution 2,100%
same,Level of Recognition %: Bitter,[1]; dilution 3,0%
same,Level of Recognition %: Neutral,[1]; dilution 3,0%
same,Level of Recognition %: Salty,[1]; dilution 3,0%
same,Level of Recognition %: Sour,[1]; dilution 3,0%
same,Level of Recognition %: Sweet,[1]; dilution 3,100%
same,Level of Recognition %: Bitter,[1]; dilution 4,0%
same,Level of Recognition %: Neutral,[1]; dilution 4,0%
same,Level of Recognition %: Salty,[1]; dilution 4,0%
same,Level of Recognition %: Sour,[1]; dilution 4,0%
same,Level of Recognition %: Sweet,[1]; dilution 4,100%
same,hedonic score,[2],7.0±2.6
same,detection threshold concentration of the basic taste,[3]; literature (Purves 2005; Robinson 2005),approximately 20 mmol·l^−1
same,detection threshold,[3]; representative compound of a primary taste,6.846 g/L
same,intensity score,[4],8.3±0.9
